Experimental data as given in patent US20220204473A1, “COMPOUND AS IRAK INHIBITOR” (SHANGHAI MEIYUE BIOTECH DEVELOPMENT CO., LTD., priority 2018, published 2022).
Where two headings read alike, the source gives them in different places.

Tests used:
[1] = biological target: T1, human IRAK4 (Homo sapiens, UniProt Q9NWZ3); test: IRAK4 MSA (Mobility-Shift Assay) at Km ATP; type: biochemical; conditions: GST-IRAK4 1 nM, ATP 37 μM (Km); read-out: IC50 for inhibiting human IRAK4 kinase
T1 construct: purchased Cama (so in the source)
T1 sequence (Q9NWZ3 1-460): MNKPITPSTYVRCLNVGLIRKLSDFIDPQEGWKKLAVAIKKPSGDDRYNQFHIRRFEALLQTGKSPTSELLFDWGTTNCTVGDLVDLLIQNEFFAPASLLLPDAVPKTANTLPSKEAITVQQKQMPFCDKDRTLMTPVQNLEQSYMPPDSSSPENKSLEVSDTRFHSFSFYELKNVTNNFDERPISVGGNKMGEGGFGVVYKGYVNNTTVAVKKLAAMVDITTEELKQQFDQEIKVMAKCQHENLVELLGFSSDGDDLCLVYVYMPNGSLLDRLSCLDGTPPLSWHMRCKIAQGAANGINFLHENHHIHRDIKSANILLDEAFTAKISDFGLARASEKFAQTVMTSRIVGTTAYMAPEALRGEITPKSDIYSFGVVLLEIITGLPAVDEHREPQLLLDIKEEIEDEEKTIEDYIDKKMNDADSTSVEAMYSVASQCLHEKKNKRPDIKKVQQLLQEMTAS
Protocol: A recombinant fusion protein of N-terminal GST (glutathione-S-transferase) and human IRAK4 was used as enzyme (GST-IRAK4, kinase IRAK4 (Cama)) at a final concentration of 1 nM; ATP (Sigma) was at a final concentration of 37 μM; the substrates used for the kinase reaction were a 5-FAM (5-carboxyfluorescein)-labeled polypeptide (5-FAM-[…]-COOH) and a substrate peptide FAM-P8 (GL Biochem) at final concentrations of […].
In this assay, 500 μM solutions of the compounds were prepared in 100% DMSO, and serially 4-fold diluted to the 10th concentration gradient with 100% DMSO, followed by a 10-fold dilution in the compound buffer (50 mM HEPES. pH 7.5, 0.00015% Brij-35) to give intermediate dilutions of the compounds at a final concentration of 10 μM-0.04 nM containing 10% DMSO respectively, 5 μL of the dilutions were transferred into a black 384-well plate respectively.
IRAK4 was diluted to 2.5 nM in the kinase buffer (50 mM HEPES, pH 7.5, 0.00015% Brij-35, 2 mM DTT). 10 μL of the IRAK4 dilution was transferred to the 384-well plate and co-incubated with the compound for 10-15 min.
The substrate and ATP were diluted to 12.5 μM and 92.5 μM with reaction buffer (50 mM HEPES, pH 7.5, 0.00015% Brij-35, 10 mM MgCl2), respectively. 10 μL of the dilutions were transferred to a 384-well plate and incubated at 28° C. for 1 h respectively. The reaction was terminated by adding 25 μL of 50 mM EDTA to the 384-well plate.
The inhibition rates of IRAK4 by the compounds were calculated by measuring the rate of phosphorylated substrate using a Caliper EZ Reader (PerkinElmer) and the IC50 values were calculated by XL-fit software.

[2] = PK assay in rat (intravenous injection and oral gavage); type: in vivo; conditions: plasma, male SD rat; for Cmax: read-out: Peak concentration Cmax; for AUC(0-t): read-out: Area under curve AUC0-t; for AUC(0-inf): read-out: Area under curve AUC0-∞; for MRT: read-out: Average retention time MRT; for half-life: read-out: Half life t1/2 (converted)
Protocol: The rats used for pharmacokinetic study in the example were male SPF-grade SD rats (B&K Universal, Shanghai).
Route of administration: a single dose by oral gavage or intravenous injection
Sampling points: 0.083 h, 0.25 h, 0.5 h, 1 h, 2 h, 4 h, 6 h, 8 h and 24 h after administration
Sample processing: 0.2 mL of venous blood was collected, and let stand on ice before centrifugation to separate plasma (centrifugation conditions: 8000 rpm, 6 min, 4° C.). The separated plasma was stored at −80° C. before analysis.
Internal standard working solution: An appropriate amount of tolbutamide internal standard stock solution at 645,000 ng/mL was added into a volumetric flask, and was diluted to the volume with methanol. The solution was well mixed to give an internal standard working solution with a concentration of 50 ng/mL.
Sample pretreatment: 50 μL of plasma was added into a 1.5-mL centrifuge tube, and added with 250 μL of internal standard solution (methanol of the same volume for the blank control). The solution was well mixed by vortex, and centrifuged for 5 min at 14000 rpm. 200 μL of the supernatant was transferred into a 96-well sample feeding plate, and loaded onto a LC-MS/MS system.
Column: ACQUITY UPLC BEH C18 1.7 μm (50 mm×2.10 mm)
Mobile phase: A: 0.1% aqueous formic acid; B: 0.1% formic acid in acetonitrile
The data processing system was Analyst software (Applied Biosystems, USA, ver 1.5.5).

[3] = tested on: TNF-α release in LPS-induced Balb/c female mice; test: Inhibition of TNF-α release in LPS-induced Balb/c female mice; type: in vivo, mouse; design: concentration or dose not given beside the values; conditions: oral gavage 5 h before LPS induction, serum 1.5 h after stimulation
Protocol: In the normal control groups, the animals received an intraperitoneal injection of normal saline (10 mL/kg) and in the model groups, the animals received LPS stimulation (Sigma CAT #L2630, i.p., 10 mL/kg, 0.2 mg/kg). During the assay, to the test compounds, DMSO, Solutol and 10 mM PBS were sequentially added to prepare a solution or suspension of required concentration for administration. For the vehicle, DMSO, Solutol and 10 mM PBS were mixed in a volume ratio of 5:15:80. In each of the groups, the animals were administered through oral gavage (10 mL/kg) 5 h before LPS (or saline) stimulation at predetermined doses, and euthanized with CO2 at 1.5 h after the stimulation for cardiac blood collection. The whole blood was not anticoagulated, incubated in wet ice for 1.5 h, and centrifuged at 2000×g at 4° C. for 10 min to separate the serum. The serum was frozen at −80° C. for TNF-α assay. Quantification of the TNF-α was done with TNF-α ELISA kit according to the manufacturer's instruction.

[4] = 1 mg/kg, intravenous injection, 1 mpk
[5] = 2 mg/kg, oral administration, 2 mpk, 5% DMSO + 15% Solutol + 80% Saline

| SMILES | IC50 [1] [nM] | also measured |
| --- | --- | --- |
| COc1cc2nn(C3CC(O)C3)cc2cc1NC(=O)c1cccc(C(F)(F)F)n1 (centres unmarked) [MY-004-084] | 9.5 |  |
| COc1cc2nn(CCN3CC(F)(F)C3)cc2cc1NC(=O)c1cccc(C(F)(F)F)n1 [MY-004-017] | 36 |  |
| COc1cc2nn(C3CC(CO)C3)cc2cc1NC(=O)c1cccc(C(F)(F)F)n1 (centres unmarked) [MY-004-090] | 12.3 |  |
| COc1cc2nn([C@H]3C[C@H](C(C)(C)O)C3)cc2cc1NC(=O)c1cnc2ccccc2n1 [MY-004-094] | 41 |  |
| COc1cc2nn([C@H]3C[C@@H](C(=O)OC)C3)cc2cc1NC(=O)c1cccc(C(F)(F)F)n1 [MY-004-099] | 35 |  |
| CN(C)c1cc2nn([C@H]3C[C@H](C(C)(C)O)C3)cc2cc1NC(=O)c1cccc(F)n1 [MY-004-118] | 16.7 |  |
| COc1cc2nn([C@H]3C[C@H](C(C)(C)O)C3)cc2cc1NC(=O)c1cccc(F)n1 [MY-004-119] | 14 |  |
| COc1cc2nn([C@H]3C[C@H](C(C)(C)O)C3)cc2cc1NC(=O)c1cccc(C)n1 [MY-004-093] | 13 |  |
| CC(C)(O)c1cc2nn([C@H]3C[C@H](C(C)(C)O)C3)cc2cc1NC(=O)c1cccc(C#N)n1 [MY-004-110] | 48 |  |
| COc1cc2nn([C@H]3C[C@@H](C(C)(C)O)C3)cc2cc1NC(=O)c1cccc(C(F)(F)F)n1 [MY-004-040] | 13 |  |
| COc1cc2nn([C@H]3C[C@H](C(=O)OC)C3)cc2cc1NC(=O)c1cccc(C(F)(F)F)n1 [MY-004-100] | 11 |  |

Now those with a lower IC50 [1], led by results:

| IC50 [1] [nM] | SMILES | also measured |
| --- | --- | --- |
| 6.9 | CC(C)(O)c1cc2nn([C@H]3CC[C@@H](O)CC3)cc2cc1NC(=O)c1cccc(C(F)(F)F)n1 [MY-004-326] |  |
| 8.4 | CC(C)(O)[C@H]1C[C@H](n2cc3cc(NC(=O)c4cccc(C(F)(F)F)n4)c(-n4cc(C#N)cn4)cc3n2)C1 [MY-004-229] |  |
| 2.2 | O=C(Nc1cc2cn([C@H]3CC[C@H](O)CC3)nc2cc1OCC1CC1)c1cccc(C(F)(F)F)n1 [MY-004-217] |  |
| 5 | COc1cc2nn([C@H]3C[C@H](CO)C3)cc2cc1NC(=O)c1cccc(C(F)(F)F)n1 [MY-004-082] | Cmax ([2]; 1 mg/kg, intravenous injection, 1 mpk, 5% DMSO + 15% Solutol + 80% Saline): 1320 ng/mL; AUC(0-t) [2, 4]: 790 ng·h/mL; AUC(0-inf) [2, 4]: 793 ng·h/mL; MRT [2, 4]: 31.2 min; clearance ([2]; 1 mg/kg, intravenous injection, 1 mpk, read-out: Clearance CL): 21.9 mL/min/kg; half-life [2, 4]: 30.6 min; Vd ([2]; 1 mg/kg, intravenous injection, 1 mpk, read-out: Volume of distribution at steady state VZ): 0.93 L/kg; AUC(0-t) [2, 5]: 416 ng·h/mL; AUC(0-inf) [2, 5]: 424 ng·h/mL; MRT [2, 5]: 161 min; bioavailability ([2]; 2 mg/kg, oral administration, 2 mpk, 5% DMSO + 15% Solutol + 80% Saline, read-out: Bioavailability F): 26.3%; half-life [2, 5]: 65.4 min; Cmax [2, 5]: 114 ng/mL; Tmax ([2]; 2 mg/kg, oral administration, 2 mpk, 5% DMSO + 15% Solutol + 80% Saline, read-out: Time to peak tmax): 30 min |
| 6.4 | CC(C)(O)[C@H]1C[C@H](n2cc3cc(NC(=O)c4cccc(C(F)(F)F)n4)c(-c4ccccn4)cc3n2)C1 [MY-004-146] |  |
| 4.3 | COc1cc2nn([C@H]3CC[C@@H](O)CC3)cc2cc1NC(=O)c1cccc(C(F)(F)F)n1 [MY-004-127-2] |  |
| 6.3 | COc1cc2nn(C3CC(OC)C3)cc2cc1NC(=O)c1cccc(C(F)(F)F)n1 (centres unmarked) [MY-004-168] |  |
| 6.6 | COc1cc2nn(C3CC(C)(O)C3)cc2cc1NC(=O)c1cccc(C(F)(F)F)n1 (centres unmarked) [MY-004-128] |  |
| 2.4 | CC(C)(O)c1cc2nn([C@H]3CC[C@H](O)CC3)cc2cc1NC(=O)c1cccc(C(F)(F)F)n1 [MY-004-322] |  |
| 5.1 | O=C(Nc1cc2cn([C@H]3CC[C@@H](O)CC3)nc2cc1OCC1CC1)c1cccc(C(F)(F)F)n1 [MY-004-218] |  |
| 2.7 | CN(C)c1cc2nn([C@H]3CC[C@](C)(O)CC3)cc2cc1NC(=O)c1cccc(C(F)(F)F)n1 [MY-004-167] |  |
| 2 | C[C@]1(O)CC[C@H](n2cc3cc(NC(=O)c4cccc(C(F)(F)F)n4)c(-n4cccn4)cc3n2)CC1 [MY-004-228] | Inhibition rate of TNF-α [3]: 88.46% |
| 1.7 | C[C@]1(O)CC[C@@H](n2cc3cc(NC(=O)c4cccc(C(F)(F)F)n4)c(-n4cccn4)cc3n2)CC1 [MY-004-227] |  |
| 1.6 | CN(C)c1cc2nn([C@H]3CC[C@@H](O)CC3)cc2cc1NC(=O)c1cccc(C(F)(F)F)n1 [MY-004-154] | Inhibition rate of TNF-α [3]: 87.82% |
